Measured values: PMC8567202, “Phosphoinositide-binding activity of Smad2 is essential for its function in TGF-β signaling” (The Journal of Biological Chemistry, 2021)

Columns and labels:
Format in all cases: cell-based
HeLa cells [1] = test: TIRF imaging of PM localization of EGFP-Smad2; conditions: HeLa cells, 10 ng/ml TGF-β, SB-431542 10 μM for 36 h where used
Procedure: (§1) Figure 4 Quantitative imaging analyses of spatiotemporal dynamics of Smad2.A, TIRF images of mouse EGFP-Smad2-WT transfected into HeLa cells whose endogenous Smad2 is suppressed by siRNA. Images were taken before and 5 min after TGF-β stimulation (10 ng/ml) with and without PI(4,5)P2 depletion. A pseudo-coloring scheme was used with orange and blue representing the highest and the lowest intensity, respectively. B, kinetics of TGF-β stimulated (10 ng/ml) PM localization of EGFP-Smad2-WT (blue), -K420A (green), and -W422A (orange) transfected into HeLa cells the endogenous Smad2 of which was suppressed by siRNA. For EGFP-Smad2-WT, the effect of PI(4,5)P2 depletion (black) and TβRI inhibition by SB-431542 (10 μM for 36 h) (red) were measured. Data points indicate average ±S.D. (n = 10 cells). C, spatially resolved PM PI(4,5)P2 concentration ([PI(4,5)P2]) profiles calculated from two-channel cross-sectional images of HeLa cells (before and 5 min after 10 ng/ml TGF-β stimulation and after PI(4,5)P2 depletion). Each cell is a representative of more than ten cells analyzed. Spatially averaged [PI(4,5)P2] values for each cell type are shown. […] E, time courses of the half-life of colocalization for SNAP-TMR-labeled TβRI and EGFP-Smad2 determined by dual color single-molecule tracking analysis. […] For EGFP-Smad2-WT, the effect of PI(4,5)P2 depletion (purple) was measured. […]

TβRI = test: Dual color single-molecule tracking, TβRI and EGFP-PLCδ-PH; conditions: HeLa cells
HeLa cells [2] = test: Ratiometric PI(4,5)P2 imaging; conditions: 10 ng/ml TGF-β
Procedure: as §1

## NC(=O)c1ccc(-c2nc(-c3ccc4c(c3)OCO4)c(-c3ccccn3)[nH]2)cc1 [SB-431542, reference compound]
HeLa cells [1]
  PM residence / dissociation of Smad2: greatly elongated the PM residence of Smad2

## EGFP-phospholipase Cδ-pleckstrin homology domain [EGFP-PLCδ-PH]
TβRI; 10 ng/ml TGF-β, n = 10 cells
  time of maximal dwell time of TβRI-PLCδ-PH complex after TGF-β stimulation: 5 min
TβRI; before and after TGF-β stimulation
  colocalization of TMR-SNAP-TβRI and EGFP-PLCδ-PH after PI(4,5)P2 depletion: eliminated colocalization

## TGF-β: TGF-β1 was purchased from Millipore sigma (Cat no. T7039-2UG)
HeLa cells [2]
  effect on PM PI(4,5)P2 distribution and spatially averaged concentration: neither spatiotemporal distribution of PI(4,5)P2 nor the spatially averaged PI(4,5)P2 concentration was altered
